Experimental data as given in BindingDB's records for doi:10.1021/jm00008a008 (Arris Pharmaceutical, 1995).

assay: Tested for activity against 5-hydroxytryptamine 1A receptor from bovine hippocampus

`COc1cccc2c1C[C@H]1CCN(Cc3ccccc3)[C@H]1C2` [1-Benzyl-5-methoxy-2,3,3a,4,9,9a-hexahydro-1H-benzo[f]indole] and `COc1cccc2c1C[C@H]1CCN[C@H]1C2` [5-Methoxy-2,3,3a,4,9,9a-hexahydro-1H-benzo[f]indole] are the same in Ki: 1000 nM for the first, 1000 nM for the second.

Compared with `CCCN1[C@H](C)C[C@H]2c3c(O)cccc3CC[C@H]21` [(2R,3aR,9bS)-2-Methyl-3-propyl-2,3,3a,4,5,9b-hexahydro-1H-benzo[e]indol-9-ol], `CCCN1CC[C@H]2c3c(cccc3OC)CC[C@@H]21` [(3aS,9bS)-9-Methoxy-3-propyl-2,3,3a,4,5,9b-hexahydro-1H-benzo[e]indole] is 80-fold lower in Ki: 16 nM for the first, 0.2 nM for the second.

Compound `COc1cccc2c1CC[C@@H]1[C@H]2CCN1CC1CC1` [(3aR,9bS)-3-Cyclopropylmethyl-6-methoxy-2,3,3a,4,5,9b-hexahydro-1H-benzo[e]indole] has a Ki of 1000 nM.
